Here are results for one compound from ChEMBL document CHEMBL2396647, “The synergic modeling for the binding of fluoroquinolone antibiotics to the hERG potassium channel” (Bioorg Med Chem Lett, 2013).

Holding throughout (assay type): cell-based
Assay [1] addresses T1, Voltage-gated inwardly rectifying potassium channel KCNH2 (Homo sapiens, UniProt Q12809, Y652A). Put plainly: Binding affinity to human ERG Y652A tetrameric mutant expressed in HEK293 cells assessed as inhibition of tail current measured upon repolarization to -40 mV by patch clamp method. Background: In patch-clamp work, channel activity is measured electrically.
The target of assay [2] is T1, Voltage-gated inwardly rectifying potassium channel KCNH2. Put plainly: Binding affinity to human ERG Y652A tandem dimeric mutant expressed in HEK293 cells assessed as inhibition of tail current measured upon repolarization to -40 mV by patch clamp method.
Assay [3] concerns the target T2, Voltage-gated inwardly rectifying potassium channel KCNH2 (Homo sapiens, UniProt Q12809, F656A). Put plainly: Binding affinity to human ERG F656A tetrameric mutant expressed in HEK293 cells assessed as inhibition of tail current measured upon repolarization to -120 mV by patch clamp method.
The target in assay [4] is Voltage-gated inwardly rectifying potassium channel KCNH2 (Homo sapiens, UniProt Q12809). Put plainly: Binding affinity to wild type human ERG expressed in HEK293 cells assessed as inhibition of tail current measured upon repolarization to -40 mV by patch clamp method.
Voltage-gated inwardly rectifying potassium channel KCNH2 (Homo sapiens, UniProt Q12809), sequence (Q12809 whole entry): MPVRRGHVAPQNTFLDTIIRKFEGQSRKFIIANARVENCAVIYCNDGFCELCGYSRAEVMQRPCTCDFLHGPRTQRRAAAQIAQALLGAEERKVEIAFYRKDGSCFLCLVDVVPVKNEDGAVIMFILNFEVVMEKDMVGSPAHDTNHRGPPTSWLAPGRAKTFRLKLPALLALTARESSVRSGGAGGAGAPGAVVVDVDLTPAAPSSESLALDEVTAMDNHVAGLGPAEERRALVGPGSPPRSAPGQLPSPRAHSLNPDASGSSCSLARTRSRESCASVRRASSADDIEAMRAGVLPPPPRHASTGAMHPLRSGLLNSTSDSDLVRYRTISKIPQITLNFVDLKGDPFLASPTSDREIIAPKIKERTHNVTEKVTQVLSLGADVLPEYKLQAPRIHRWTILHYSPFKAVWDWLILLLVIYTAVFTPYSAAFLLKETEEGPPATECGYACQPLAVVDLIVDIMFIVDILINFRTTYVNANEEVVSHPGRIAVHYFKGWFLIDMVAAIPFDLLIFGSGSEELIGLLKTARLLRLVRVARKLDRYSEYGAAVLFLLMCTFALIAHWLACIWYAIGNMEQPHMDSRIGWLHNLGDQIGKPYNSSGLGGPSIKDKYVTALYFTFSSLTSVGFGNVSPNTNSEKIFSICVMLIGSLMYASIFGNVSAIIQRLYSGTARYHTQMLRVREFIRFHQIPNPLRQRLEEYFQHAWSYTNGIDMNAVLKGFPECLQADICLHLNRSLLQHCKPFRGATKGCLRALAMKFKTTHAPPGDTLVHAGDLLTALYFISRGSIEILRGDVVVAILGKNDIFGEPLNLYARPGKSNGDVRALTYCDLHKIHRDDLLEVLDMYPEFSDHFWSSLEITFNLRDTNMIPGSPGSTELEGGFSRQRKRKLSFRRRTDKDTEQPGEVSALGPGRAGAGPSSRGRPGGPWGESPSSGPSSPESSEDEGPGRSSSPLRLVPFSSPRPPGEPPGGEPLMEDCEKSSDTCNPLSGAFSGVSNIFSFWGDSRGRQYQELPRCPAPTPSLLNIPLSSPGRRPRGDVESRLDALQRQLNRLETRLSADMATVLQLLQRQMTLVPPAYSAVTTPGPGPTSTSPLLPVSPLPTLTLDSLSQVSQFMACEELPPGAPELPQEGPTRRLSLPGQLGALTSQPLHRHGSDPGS
Assay [5] concerns the target T2, Voltage-gated inwardly rectifying potassium channel KCNH2. Put plainly: Binding affinity to human ERG F656A tandem dimeric mutant expressed in HEK293 cells assessed as inhibition of tail current measured upon repolarization to -120 mV by patch clamp method.
Assay [6] deals with Voltage-gated inwardly rectifying potassium channel KCNH2 (Homo sapiens, UniProt Q12809, S624A). Put plainly: Binding affinity to human ERG S624A tetrameric mutant expressed in HEK293 cells assessed as inhibition of tail current measured upon repolarization to -40 mV by patch clamp method.
Voltage-gated inwardly rectifying potassium channel KCNH2 (Homo sapiens, UniProt Q12809, S624A), sequence (Q12809 whole entry S624A): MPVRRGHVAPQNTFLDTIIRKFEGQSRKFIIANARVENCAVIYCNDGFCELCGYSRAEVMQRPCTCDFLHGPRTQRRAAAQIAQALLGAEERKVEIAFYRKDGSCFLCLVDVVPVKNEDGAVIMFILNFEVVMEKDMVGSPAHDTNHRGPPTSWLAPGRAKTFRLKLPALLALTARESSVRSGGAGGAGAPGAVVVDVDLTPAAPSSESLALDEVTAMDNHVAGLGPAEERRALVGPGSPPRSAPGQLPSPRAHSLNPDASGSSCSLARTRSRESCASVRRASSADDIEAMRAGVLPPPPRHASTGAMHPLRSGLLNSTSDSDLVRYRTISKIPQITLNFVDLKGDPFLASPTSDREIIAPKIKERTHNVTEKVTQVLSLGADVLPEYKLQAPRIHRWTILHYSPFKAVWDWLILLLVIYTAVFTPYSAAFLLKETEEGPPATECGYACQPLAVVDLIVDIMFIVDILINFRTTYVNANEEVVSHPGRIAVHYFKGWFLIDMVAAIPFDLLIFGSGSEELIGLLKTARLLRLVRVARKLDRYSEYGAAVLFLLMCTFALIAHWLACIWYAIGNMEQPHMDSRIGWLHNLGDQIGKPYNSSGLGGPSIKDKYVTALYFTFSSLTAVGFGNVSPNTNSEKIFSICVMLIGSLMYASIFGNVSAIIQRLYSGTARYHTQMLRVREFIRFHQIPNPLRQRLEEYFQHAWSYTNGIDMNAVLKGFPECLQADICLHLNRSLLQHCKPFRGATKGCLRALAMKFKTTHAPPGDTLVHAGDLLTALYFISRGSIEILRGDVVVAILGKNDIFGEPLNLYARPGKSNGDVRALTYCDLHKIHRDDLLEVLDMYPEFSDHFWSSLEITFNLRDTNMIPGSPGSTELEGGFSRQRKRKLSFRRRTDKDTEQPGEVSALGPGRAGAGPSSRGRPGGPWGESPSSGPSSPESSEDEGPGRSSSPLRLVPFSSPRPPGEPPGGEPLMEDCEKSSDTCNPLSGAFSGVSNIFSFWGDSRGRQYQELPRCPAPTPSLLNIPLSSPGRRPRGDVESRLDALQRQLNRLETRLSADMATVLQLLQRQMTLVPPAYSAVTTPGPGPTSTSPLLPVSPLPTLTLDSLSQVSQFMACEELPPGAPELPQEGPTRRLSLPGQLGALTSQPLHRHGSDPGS

T2 sequence (Q12809 whole entry F656A): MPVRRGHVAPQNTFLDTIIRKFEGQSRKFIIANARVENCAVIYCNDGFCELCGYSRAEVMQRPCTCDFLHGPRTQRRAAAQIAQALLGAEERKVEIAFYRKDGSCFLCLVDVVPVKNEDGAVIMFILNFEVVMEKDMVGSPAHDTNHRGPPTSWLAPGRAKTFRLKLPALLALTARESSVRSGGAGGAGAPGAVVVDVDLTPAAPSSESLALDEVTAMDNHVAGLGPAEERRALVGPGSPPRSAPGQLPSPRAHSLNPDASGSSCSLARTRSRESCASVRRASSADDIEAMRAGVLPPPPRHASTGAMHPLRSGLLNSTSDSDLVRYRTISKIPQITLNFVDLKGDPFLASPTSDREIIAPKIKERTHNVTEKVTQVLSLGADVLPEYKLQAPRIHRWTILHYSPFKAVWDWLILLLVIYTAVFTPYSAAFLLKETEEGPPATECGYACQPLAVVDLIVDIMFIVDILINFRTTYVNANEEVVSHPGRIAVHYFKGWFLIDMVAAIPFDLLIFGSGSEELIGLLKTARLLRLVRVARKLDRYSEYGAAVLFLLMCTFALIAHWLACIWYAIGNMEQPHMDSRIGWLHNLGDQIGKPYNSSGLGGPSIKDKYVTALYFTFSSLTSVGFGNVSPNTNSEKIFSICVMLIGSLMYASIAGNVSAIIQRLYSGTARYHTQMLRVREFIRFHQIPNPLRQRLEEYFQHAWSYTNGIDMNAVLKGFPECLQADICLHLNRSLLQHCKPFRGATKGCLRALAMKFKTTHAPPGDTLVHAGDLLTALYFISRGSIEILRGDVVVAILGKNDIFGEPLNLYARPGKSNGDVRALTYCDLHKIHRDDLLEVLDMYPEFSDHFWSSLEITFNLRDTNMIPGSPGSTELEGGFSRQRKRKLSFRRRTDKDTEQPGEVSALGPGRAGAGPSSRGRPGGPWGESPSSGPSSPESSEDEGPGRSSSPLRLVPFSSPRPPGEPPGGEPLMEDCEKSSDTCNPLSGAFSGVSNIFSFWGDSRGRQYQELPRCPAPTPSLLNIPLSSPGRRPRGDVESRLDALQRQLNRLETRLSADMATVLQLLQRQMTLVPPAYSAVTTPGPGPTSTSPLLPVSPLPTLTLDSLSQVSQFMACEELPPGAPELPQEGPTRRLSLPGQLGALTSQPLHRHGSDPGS
T1 sequence (Q12809 whole entry Y652A): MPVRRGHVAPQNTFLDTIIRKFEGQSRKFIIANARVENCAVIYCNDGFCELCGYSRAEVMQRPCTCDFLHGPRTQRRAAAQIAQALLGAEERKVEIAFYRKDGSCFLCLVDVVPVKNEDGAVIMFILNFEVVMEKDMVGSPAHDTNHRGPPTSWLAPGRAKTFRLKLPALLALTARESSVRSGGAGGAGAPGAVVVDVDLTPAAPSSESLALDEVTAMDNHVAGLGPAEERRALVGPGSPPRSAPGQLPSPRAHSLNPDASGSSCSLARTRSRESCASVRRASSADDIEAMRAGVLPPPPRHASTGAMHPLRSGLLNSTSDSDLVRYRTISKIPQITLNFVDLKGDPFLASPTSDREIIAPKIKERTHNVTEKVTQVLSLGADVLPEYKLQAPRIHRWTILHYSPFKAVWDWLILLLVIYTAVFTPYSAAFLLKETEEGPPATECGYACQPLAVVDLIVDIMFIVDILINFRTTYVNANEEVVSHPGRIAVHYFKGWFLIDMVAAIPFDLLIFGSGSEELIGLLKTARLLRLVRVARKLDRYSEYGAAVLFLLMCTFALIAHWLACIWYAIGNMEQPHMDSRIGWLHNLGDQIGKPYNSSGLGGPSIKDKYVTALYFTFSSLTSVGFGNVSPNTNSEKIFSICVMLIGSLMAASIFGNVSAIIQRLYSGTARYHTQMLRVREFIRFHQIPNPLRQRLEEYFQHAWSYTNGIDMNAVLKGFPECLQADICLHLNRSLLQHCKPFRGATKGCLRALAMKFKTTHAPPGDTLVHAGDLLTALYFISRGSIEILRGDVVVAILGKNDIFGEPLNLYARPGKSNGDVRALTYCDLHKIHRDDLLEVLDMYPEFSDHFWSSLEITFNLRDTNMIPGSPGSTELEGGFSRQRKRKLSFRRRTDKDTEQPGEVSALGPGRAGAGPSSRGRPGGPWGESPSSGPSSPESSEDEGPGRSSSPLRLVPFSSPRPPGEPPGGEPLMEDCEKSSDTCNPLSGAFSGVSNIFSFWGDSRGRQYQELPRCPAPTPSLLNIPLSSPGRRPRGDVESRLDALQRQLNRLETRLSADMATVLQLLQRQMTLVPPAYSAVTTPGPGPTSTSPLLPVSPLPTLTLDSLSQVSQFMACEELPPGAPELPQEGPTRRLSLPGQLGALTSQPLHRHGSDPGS

One may read the IC50 as the concentration at which inhibition is half-maximal. Consider `C[C@@H]1CN(c2c(F)c(N)c3c(=O)c(C(=O)O)cn(C4CC4)c3c2F)C[C@H](C)N1` [SPARFLOXACIN], for which the IC50 is over 250 µM in assay [1]; 128 µM in assay [2]; over 250 µM in assay [3]; 21.7 µM in assay [4]; 33.6 µM in assay [5]; 46.9 µM in assay [6].
